31 molecules from patent publication US9382197B2, “Substituted hydroxamic acids and uses thereof” (Millennium Pharmaceuticals, Inc., priority 2010, dated 2016) can be followed below.

Structures are written as SMILES. Bounds are passed on as bounds.

As usually defined, the IC50 is the concentration that inhibits the measured activity by half.

The first assay concerns the target T1, purified human HDAC6 (Homo sapiens, UniProt Q9UBN7).
T1 construct: purchased BPS Bioscience 5006
T1 sequence (Q9UBN7 1-1215): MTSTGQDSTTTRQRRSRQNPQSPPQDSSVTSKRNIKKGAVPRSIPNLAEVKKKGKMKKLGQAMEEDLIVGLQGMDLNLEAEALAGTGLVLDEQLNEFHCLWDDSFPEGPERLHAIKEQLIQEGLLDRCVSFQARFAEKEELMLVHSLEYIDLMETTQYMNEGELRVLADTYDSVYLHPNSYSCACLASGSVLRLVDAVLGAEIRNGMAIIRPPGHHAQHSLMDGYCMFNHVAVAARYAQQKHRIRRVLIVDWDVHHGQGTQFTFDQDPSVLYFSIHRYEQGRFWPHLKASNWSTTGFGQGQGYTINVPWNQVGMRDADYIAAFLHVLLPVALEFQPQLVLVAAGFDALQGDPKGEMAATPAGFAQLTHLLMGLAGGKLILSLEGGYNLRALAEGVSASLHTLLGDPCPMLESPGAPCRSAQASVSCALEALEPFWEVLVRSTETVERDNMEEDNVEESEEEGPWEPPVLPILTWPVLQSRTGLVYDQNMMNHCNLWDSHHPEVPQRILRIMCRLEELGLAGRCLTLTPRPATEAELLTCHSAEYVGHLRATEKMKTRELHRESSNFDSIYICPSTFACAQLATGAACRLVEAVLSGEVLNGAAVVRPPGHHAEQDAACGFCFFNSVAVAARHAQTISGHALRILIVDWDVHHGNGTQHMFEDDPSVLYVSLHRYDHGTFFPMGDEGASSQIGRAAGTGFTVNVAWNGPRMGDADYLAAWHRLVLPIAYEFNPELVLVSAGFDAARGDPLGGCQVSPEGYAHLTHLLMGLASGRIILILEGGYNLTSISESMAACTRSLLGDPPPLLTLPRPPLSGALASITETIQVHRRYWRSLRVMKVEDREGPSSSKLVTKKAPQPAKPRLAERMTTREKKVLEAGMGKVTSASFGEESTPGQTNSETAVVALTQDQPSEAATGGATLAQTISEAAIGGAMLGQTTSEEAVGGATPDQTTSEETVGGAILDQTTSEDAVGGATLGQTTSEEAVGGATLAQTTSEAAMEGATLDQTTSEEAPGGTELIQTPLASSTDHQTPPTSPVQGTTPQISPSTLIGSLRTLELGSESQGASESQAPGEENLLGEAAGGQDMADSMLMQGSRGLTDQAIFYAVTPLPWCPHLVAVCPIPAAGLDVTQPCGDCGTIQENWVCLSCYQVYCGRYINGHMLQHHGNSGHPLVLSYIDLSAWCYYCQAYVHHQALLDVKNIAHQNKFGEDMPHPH
As to the kind of experiment: HDAC6 Enzyme Assay. Format: biochemical. Particulars: bin: greater than 500 nM and less than 1 μM (lower bound in nM, upper bound in μM). The essentials: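 Purified human HDAC6 incubated 1 h at 30 °C with Ac-Arg-Gly-Lys(Ac)-AMC and compound; trichostatin A stop, trypsin release of AMC, fluorescence Ex 340/Em 460 nm. IC50 from concentration–response relative to DMSO.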
With `Cn1c(C(=O)N[C@@H](c2ccc(C(=O)NO)cc2)C(F)(F)F)cc(Cl)c1Cl` [Compound I-108, 4,5-dichloro-1-methyl-N-((1S)-2,2,2-trifluoro-1-{4-[(hydroxyamino)carbonyl]phenyl}ethyl)-1H-pyrrole-2-carboxamide], the IC50 was 500 to 1000 nM.

`Cc1cc(C)c(C(=O)NC(C)c2cccc(C(=O)NO)c2)[nH]1` (stereo not shown) [Compound I-91, N-(1-{3-[(hydroxyamino)carbonyl]phenyl}ethyl)-3,5-dimethyl-1H-pyrrole-2-carboxamide] returned an IC50 of 500 to 1000 nM.

The same assay, now with this note: bin: greater than 1 μM.
For `CC(NC(=O)CC(C)(C)C)c1ccc(C(=O)NO)cc1` (stereo not shown) [Compound I-144, 4-{1-[(3,3-dimethylbutanoyl)amino]ethyl}-N-hydroxybenzamide], the IC50 was over 1000 nM.

In turn, `Cc1cc(C(=O)NO)ccc1C(C)NC(=O)C(C)(C)C` (stereo not shown) [Compound I-490, 4-{1-[(2,2-dimethylpropanoyl)amino]ethyl}-N-hydroxy-3-methylbenzamide] returned an IC50 of over 1000 nM.

Regarding `COc1ccc(CCCC(=O)NC(C)c2ccc(C(=O)NO)cc2)cc1` (stereo not shown) [Compound I-70, N-hydroxy-4-(1-{[4-(4-methoxyphenyl)butanoyl]amino}ethyl)benzamide], the IC50 is over 1000 nM.

Molecule `O=C(NO)c1ccc([C@@H](NC(=O)C23CC4CC(CC(C4)C2)C3)C2CC2)cc1` [Compound I-322, N-((S)-cyclopropyl{4-[(hydroxyamino)carbonyl]phenyl}methyl)adamantane-1-carboxamide] yielded an IC50 of over 1000 nM.

Molecule `CC(C)[C@@H](NS(=O)(=O)c1ccc(C(F)(F)F)cc1)c1ccc(C(=O)NO)cc1` [Compound I-189, N-hydroxy-4-[(1R)-2-methyl-1-({[4-(trifluoromethyl)phenyl]sulfonyl}amino)propyl]benzamide] gave an IC50 of over 1000 nM.

With `CC(NC(=O)c1c(Cl)cccc1Cl)c1cccc(C(=O)NO)c1` (stereo not shown) [Compound I-366, 2,6-dichloro-N-(1-{3-[(hydroxyamino)carbonyl]phenyl}ethyl)benzamide], the IC50 was over 1000 nM.

Staying with this assay, now noted: purified human HDAC6, substrate Ac-Arg-Gly-Lys(Ac)-AMC, 1 hour at 30° C.; reported as bins.
`Cn1cccc1C(=O)NC(c1ccc(C(=O)NO)cc1)C(C)(C)C` (stereo not shown) [Compound I-133, N-(1-{4-[(hydroxyamino)carbonyl]phenyl}-2,2-dimethylpropyl)-1-methyl-1H-pyrrole-2-carboxamide] gave an IC50 of 100 to 500 nM.

`C[C@@H](NC(=O)Nc1ccc2c(c1)CCO2)c1ccc(C(=O)NO)cc1` [Compound I-528, 4-((1R)-1-{[(2,3-dihydro-1-benzofuran-5-ylamino)carbonyl]amino}ethyl)-N-hydroxybenzamide] displayed a 50% inhibitory concentration (IC50) of under 100 nM.

The molecule `O=C(N[C@H](c1ccc(C(=O)NO)cc1)C(F)(F)F)NC12CC3CC(CC(C3)C1)C2` [Compound I-105, 4-((1R)-1-{[(1-adamantylamino)carbonyl]amino}-2,2,2-trifluoroethyl)-N-hydroxybenzamide] gave an IC50 of 100 to 500 nM.

The molecule `Cc1cc(C)cc(NC(=O)NC(C)c2ccc(C(=O)NO)cc2)c1` (stereo not shown) [Compound I-397, 4-[1-({[(3,5-dimethylphenyl)amino]carbonyl}amino)ethyl]-N-hydroxybenzamide] had an IC50 of under 100 nM.

In the case of `Cc1c(C(=O)N[C@@H](c2ccc(C(=O)NO)cc2)C(F)(F)F)oc2ccccc12` [Compound I-304, 3-methyl-N-((1S)-2,2,2-trifluoro-1-{4-[(hydroxyamino)carbonyl]phenyl}ethyl)-1-benzofuran-2-carboxamide], the IC50 is under 100 nM.

On to `CC(NC(=O)C1CC1)c1ccc(C(=O)NO)cc1` (stereo not shown) [Compound I-239, 4-{1-[(cyclopropylcarbonyl)amino]ethyl}-N-hydroxybenzamide], for which the IC50 fell in the range of 100 to 500 nM.

As for `CC(NC(=O)c1cccc2c1OCC2)c1ccc(C(=O)NO)cc1` (stereo not shown) [Compound I-134, N-(1-{4-[(hydroxyamino)carbonyl]phenyl}ethyl)-2,3-dihydro-1-benzofuran-7-carboxamide], the concentration for half-maximal inhibition (IC50) was under 100 nM.

Consider `CC(C)C(NC(=O)c1cc2ccccc2o1)c1ccc(C(=O)NO)cc1` (stereo not shown) [Compound I-32, N-(1-{4-[(hydroxyamino)carbonyl]phenyl}-2-methylpropyl)-1-benzofuran-2-carboxamide], for which the IC50 was under 100 nM.

Turning to `COc1ccc(C(=O)NC(c2ccc(C(=O)NO)cc2)C(C)(C)C)cc1` (stereo not shown) [Compound I-352, N-(1-{4-[(hydroxyamino)carbonyl]phenyl}-2,2-dimethylpropyl)-4-methoxybenzamide], the IC50 lay within 100 to 500 nM.

Molecule `Cc1[nH]c2ccccc2c1CC(=O)NC(c1ccc(C(=O)NO)cc1)C(C)C` (stereo not shown) [Compound I-174, N-hydroxy-4-(2-methyl-1-{[(2-methyl-1H-indol-3-yl)acetyl]amino}propyl)benzamide] had an IC50 of 100 to 500 nM.

`CC(NC(=O)c1ccc2occc2c1)c1ccc(C(=O)NO)cc1` (stereo not shown) [Compound I-349, N-(1-{4-[(hydroxyamino)carbonyl]phenyl}ethyl)-1-benzofuran-5-carboxamide]: the IC50 was under 100 nM.

`CC(NC(=O)Nc1ccc(C(F)(F)F)cc1Cl)c1ccc(C(=O)NO)cc1` (stereo not shown) [Compound I-163, 4-{1-[({[2-chloro-4-(trifluoromethyl)phenyl]amino}carbonyl)amino]ethyl}-N-hydroxybenzamide] had an IC50 of under 100 nM.

For `Cc1cccc(C)c1NC(=O)NC(C)c1ccc(C(=O)NO)cc1` (stereo not shown) [Compound I-156, 4-[1-({[(2,6-dimethylphenyl)amino]carbonyl}amino)ethyl]-N-hydroxybenzamide], the IC50 was 100 to 500 nM.

In turn, `CC(NC(=O)c1cc2cc(Cl)ccc2o1)c1cccc(C(=O)NO)c1` (stereo not shown) [Compound I-226, 5-chloro-N-(1-{3-[(hydroxyamino)carbonyl]phenyl}ethyl)-1-benzofuran-2-carboxamide] came in with an IC50 of 100 to 500 nM.

With `CC(C)[C@@H](NC(=O)Nc1ccccc1-c1ccccc1)c1ccc(C(=O)NO)cc1` [Compound I-515, 4-((1R)-1-{[(biphenyl-2-ylamino)carbonyl]amino}-2-methylpropyl)-N-hydroxybenzamide], the IC50 is under 100 nM.

Regarding `CC(C)C(NC(=O)c1cccc2ccccc12)c1ccc(C(=O)NO)cc1` (stereo not shown) [Compound I-331, N-(1-{4-[(hydroxyamino)carbonyl]phenyl}-2-methylpropyl)-1-naphthamide], the IC50 is 100 to 500 nM.

`COc1ccc(C(=O)N[C@@H](c2ccc(C(=O)NO)cc2)C(C)C)cc1` [Compound I-19, N-((1R)-1-{4-[(hydroxyamino)carbonyl]phenyl}-2-methylpropyl)-4-methoxybenzamide] came in with an IC50 of under 100 nM.

`CC(C)[C@@H](NC(=O)c1cccn1C)c1ccc(C(=O)NO)cc1` [Compound I-65, N-((1R)-1-{4-[(hydroxyamino)carbonyl]phenyl}-2-methylpropyl)-1-methyl-1H-pyrrole-2-carboxamide] had an IC50 of under 100 nM.

In the case of `C[C@H](NC(=O)c1cccn1C)c1ccc(C(=O)NO)cc1` [Compound I-25, N-((1S)-1-{4-[(hydroxyamino)carbonyl]phenyl}ethyl)-1-methyl-1H-pyrrole-2-carboxamide], the IC50 is under 100 nM.

On to `Cc1cc(C(=O)NC(C)c2ccc(C(=O)NO)cc2)n(C)n1` (stereo not shown) [Compound I-288, N-(1-{4-[(hydroxyamino)carbonyl]phenyl}ethyl)-1,3-dimethyl-1H-pyrazole-5-carboxamide], for which the IC50 is under 100 nM.

Turning to `Cc1ccc2[nH]c(C(=O)NC(c3ccc(C(=O)NO)cc3)C(C)C)cc2c1` (stereo not shown) [Compound I-69, N-(1-{4-[(hydroxyamino)carbonyl]phenyl}-2-methylpropyl)-5-methyl-1H-indole-2-carboxamide], the IC50 is under 100 nM.

Molecule `COc1ccc(C(=O)N[C@H](C)c2cccc(C(=O)NO)c2)cc1` [Compound I-193, N-hydroxy-3-{(1R)-1-[(4-methoxybenzoyl)amino]ethyl}benzamide] yielded an IC50 of 100 to 500 nM.

In turn, `Cc1c(C(=O)N[C@@H](c2ccc(C(=O)NO)cc2)C(C)C)oc2ccccc12` [Compound I-187, N-((1R)-1-{4-[(hydroxyamino)carbonyl]phenyl}-2-methylpropyl)-3-methyl-1-benzofuran-2-carboxamide] had an IC50 of under 100 nM.
